Results published in patent US20250114460A1, “NOVEL PLK1 DEGRADATION INDUCING COMPOUND” (UPPTHERA, INC., priority 2021, published 2025).
Like-named read-outs stand apart in the source and are kept apart here.

What was measured:
Type in all cases: cell-based
PLK1 = biological target: T1, PLK1 (Homo sapiens, UniProt P53350); test: Luciferase assay for PLK1 in HeLa LgBit (Plk1-HiBit KI) cell line; settings: 300 nM compound, luminescence after 9 hours
T1 construct: endogenous in cells; host or cells: HeLa LgBit (Plk1-HiBit KI): HeLa stably expressing LgBit, with a CRISPR/Cas9 knock-in of HiBit at the endogenous PLK1 locus
T1 sequence (P53350 whole entry): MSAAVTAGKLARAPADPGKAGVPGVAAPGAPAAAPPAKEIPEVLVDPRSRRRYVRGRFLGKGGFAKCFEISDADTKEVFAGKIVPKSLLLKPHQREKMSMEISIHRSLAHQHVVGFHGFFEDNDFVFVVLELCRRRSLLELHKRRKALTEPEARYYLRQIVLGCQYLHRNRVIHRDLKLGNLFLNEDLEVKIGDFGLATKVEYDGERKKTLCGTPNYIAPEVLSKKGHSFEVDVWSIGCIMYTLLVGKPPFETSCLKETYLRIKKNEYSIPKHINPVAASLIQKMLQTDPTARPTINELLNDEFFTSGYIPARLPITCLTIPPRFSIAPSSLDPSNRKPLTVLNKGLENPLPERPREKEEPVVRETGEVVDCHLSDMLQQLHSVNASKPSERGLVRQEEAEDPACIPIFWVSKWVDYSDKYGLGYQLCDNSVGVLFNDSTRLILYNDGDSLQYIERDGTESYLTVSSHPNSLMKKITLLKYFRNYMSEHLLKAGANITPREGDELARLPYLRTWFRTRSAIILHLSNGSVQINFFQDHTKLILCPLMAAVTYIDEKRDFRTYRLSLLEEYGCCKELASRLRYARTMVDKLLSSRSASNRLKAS
Procedure, shortened: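 Luminescence, followed in real time after adding compound at 300 nM and Endurazine substrate, is reported relative to DMSO-treated wells. Cells are a HeLa LgBit line with a Plk1-HiBit knock-in, synchronized by 2 mM thymidine for 24 h, released, and cultured 18 h before treatment.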

NCI-H526 cell line = test: Cell viability assay for H526 cell (EZ-Cytox); settings: Homo sapiens, NCI-H526, 120 h; H526 cells, 5 days, 3000 nM to 0.46 nM
Procedure, shortened: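 Read-out was EZ-Cytox colorimetric absorbance at 450 nm, taken after brief plate shaking, with IC50 derived. Before reading, H526 cells had been cultured with test compound for 5 days.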

MRC-5 cell line = test: Cell viability assay for MRC-5 cell line (EZ-Cytox); settings: Homo sapiens, MRC5, 120 h, read-out: Activity: IC50 value of Exemplary Compound to MRC-5 cell line
Procedure: 4. Cell Viability Assay for MRC-5 Cell Line
(1) Culture of MRC-5 Cell Line
Passage of cultured cells was maintained within P15.
(2) Treatment of Compounds of the Present Invention
Then, it was cultured in 37° C.
(3) Cytotoxicity Experiment
CO2 incubator for 4 hours.

[1] = MRC-5 normal cell line, 5 days, 10000 nM to 1.52 nM, N.D. = no cytotoxicity until 10 μM

Row | Compound | Activity: ratio of the luminescense value of each Exemplary Compound treatment group to DMSO treatment group (PLK1) | IC50 (NCI-H526 cell line) [µM] | IC50 (MRC-5 cell line; [1]) [µM] | IC50 (MRC-5 cell line) [µM]
1 | COc1cc(C(=O)N[C@H]2CC[C@@H](N(C)CCN3CCN(c4cccc5c4C(=O)N(C4CCC(=O)NC4=O)C5=O)CC3)CC2)ccc1Nc1ncc2c(n1)N(C1CCCC1)CC(F)(F)C(=O)N2C (stereo partly drawn) [Compound 128, 4-((9-cyclopentyl-7,7-difluoro-5-methyl-6-oxo-6,7,8,9-tetrahydro-5H-pyrimido[4,5-b][1,4]diazepin-2-yl)amino)-N-((1s,4s)-4-((2-(4-(2-(2,6-dioxopiperidin-3-yl)-1,3-dioxoisoindolin-4-yl)piperazin-1-yl)ethyl)(methyl)amino)cyclohexyl)-3-methoxybenzamide] | ++ (++<0.6) | < 0.05 | 18.8 | –
2 | COc1cc(C(=O)N[C@H]2CC[C@H](N(C)CCN3CCN(c4cccc5c4C(=O)N(C4CCC(=O)NC4=O)C5=O)CC3)CC2)ccc1Nc1ncc2c(n1)N(C1CCCC1)CC(F)(F)C(=O)N2C (stereo partly drawn) [Compound 129, 4-((9-cyclopentyl-7,7-difluoro-5-methyl-6-oxo-6,7,8,9-tetrahydro-5H-pyrimido[4,5-b][1,4]diazepin-2-yl)amino)-N-((1r,4r)-4-((2-(4-(2-(2,6-dioxopiperidin-3-yl)-1,3-dioxoisoindolin-4-yl)piperazin-1-yl)ethyl)(methyl)amino)cyclohexyl)-3-methoxybenzamide] | +++ (+++: <0.3) | < 0.03 | 17.3 | –
3 | COc1cc(C(=O)NC2CCN(C(=O)CCN3CCN(c4ccc5c(c4)CN(C4CCC(=O)NC4=O)C5=O)CC3)CC2)ccc1Nc1ncc2c(n1)N(C(C)C)CC(F)(F)C(=O)N2C (stereo not drawn) [Compound 130, 4-((7,7-difluoro-9-isopropyl-5-methyl-6-oxo-6,7,8,9-tetrahydro-5H-pyrimido[4,5-b][1,4]diazepin-2-yl)amino)-N-(1-(3-(4-(2-(2,6-dioxopiperidin-3-yl)-1-oxoisoindolin-5-yl)piperazin-1-yl)propanoyl)piperidin-4-yl)-3-methoxybenzamide] | ++ (++<0.6) | < 0.03 | > 10 | –
4 | COc1cc(C(=O)N[C@H]2CC[C@H](N3CCN(c4cccc5c4C(=O)N(C4CCC(=O)NC4=O)C5=O)CC3)CC2)ccc1Nc1ncc2c(n1)N(C1CCCC1)CC(F)(F)C(=O)N2C (stereo partly drawn) [Compound 131, 4-((9-cyclopentyl-7,7-difluoro-5-methyl-6-oxo-6,7,8,9-tetrahydro-5H-pyrimido[4,5-b][1,4]diazepin-2-yl)amino)-N-((1r,4r)-4-(4-(2-(2,6-dioxopiperidin-3-yl)-1,3-dioxoisoindolin-4-yl)piperazin-1-yl)cyclohexyl)-3-methoxybenzamide] | ++ (++<0.6) | < 0.05 | > 10 | –
5 | COc1cc(C(=O)NC2CCN(C(=O)CCN3CCN(c4cccc5c4CN(C4CCC(=O)NC4=O)C5=O)CC3)CC2)ccc1Nc1ncc2c(n1)N(C(C)C)CC(F)(F)C(=O)N2C (stereo not drawn) [Compound 133, 4-((7,7-difluoro-9-isopropyl-5-methyl-6-oxo-6,7,8,9-tetrahydro-5H-pyrimido[4,5-b][1,4]diazepin-2-yl)amino)-N-(1-(3-(4-(2-(2,6-dioxopiperidin-3-yl)-1-oxoisoindolin-4-yl)piperazin-1-yl)propanoyl)piperidin-4-yl)-3-methoxybenzamide] | ++ (++<0.6) | < 0.05 | > 10 | –
6 | COc1cc(C(=O)NC2CC3(CCN(CC4CCN(c5cccc6c5C(=O)N(C5CCC(=O)NC5=O)C6=O)CC4)CC3)C2)ccc1Nc1ncc2c(n1)N(C1CCCC1)CC(F)(F)C(=O)N2C (stereo not drawn) [Compound 136, 4-((9-cyclopentyl-7,7-difluoro-5-methyl-6-oxo-6,7,8,9-tetrahydro-5H-pyrimido[4,5-b][1,4]diazepin-2-yl)amino)-N-(7-((1-(2-(2,6-dioxopiperidin-3-yl)-1,3-dioxoisoindolin-4-yl)piperidin-4-yl)methyl)-7-azaspiro[3.5]nonan-2-yl)-3-methoxybenzamide] | +++ (+++: <0.3) | < 0.03 | 6.52 | –
7 | COc1cc(C(=O)NC2CC3(CCN(CC4CCN(c5ccc6c(c5)C(=O)N(C5CCC(=O)NC5=O)C6=O)CC4)CC3)C2)ccc1Nc1ncc2c(n1)N(C1CCCC1)CC(F)(F)C(=O)N2C (stereo not drawn) [Compound 137, 4-((9-cyclopentyl-7,7-difluoro-5-methyl-6-oxo-6,7,8,9-tetrahydro-5H-pyrimido[4,5-b][1,4]diazepin-2-yl)amino)-N-(7-((1-(2-(2,6-dioxopiperidin-3-yl)-1,3-dioxoisoindolin-5-yl)piperidin-4-yl)methyl)-7-azaspiro[3.5]nonan-2-yl)-3-methoxybenzamide] | ++ (++<0.6) | < 0.03 | 16.9 | –
8 | COc1cc(C(=O)NC2CN(CC3CCN(c4cccc5c4C(=O)N(C4CCC(=O)NC4=O)C5=O)CC3)C2)ccc1Nc1ncc2c(n1)N(C1CCCC1)CC(F)(F)C(=O)N2C (stereo not drawn) [Compound 138, 4-((9-cyclopentyl-7,7-difluoro-5-methyl-6-oxo-6,7,8,9-tetrahydro-5H-pyrimido[4,5-b][1,4]diazepin-2-yl)amino)-N-(1-((1-(2-(2,6-dioxopiperidin-3-yl)-1,3-dioxoisoindolin-4-yl)piperidin-4-yl)methyl)azetidin-3-yl)-3-methoxybenzamide] | ++ (++<0.6) | < 0.05 | > 10 | –
9 | COc1cc(C(=O)NC2CN(CC3CCN(c4ccc5c(c4)C(=O)N(C4CCC(=O)NC4=O)C5=O)CC3)C2)ccc1Nc1ncc2c(n1)N(C1CCCC1)CC(F)(F)C(=O)N2C (stereo not drawn) [Compound 139, 4-((9-cyclopentyl-7,7-difluoro-5-methyl-6-oxo-6,7,8,9-tetrahydro-5H-pyrimido[4,5-b][1,4]diazepin-2-yl)amino)-N-(1-((1-(2-(2,6-dioxopiperidin-3-yl)-1,3-dioxoisoindolin-5-yl)piperidin-4-yl)methyl)azetidin-3-yl)-3-methoxybenzamide] | ++ (++<0.6) | < 0.05 | > 10 | –
10 | COc1cc(C(=O)NC2CCN(C(=O)CCN3CCN(c4ccc(F)c5c4C(=O)N(C4CCC(=O)NC4=O)C5=O)CC3)CC2)ccc1Nc1ncc2c(n1)N(C1CCCC1)CC(F)(F)C(=O)N2C (stereo not drawn) [Compound 142, 4-((9-cyclopentyl-7,7-difluoro-5-methyl-6-oxo-6,7,8,9-tetrahydro-5H-pyrimido[4,5-b][1,4]diazepin-2-yl)amino)-N-(1-(3-(4-(2-(2,6-dioxopiperidin-3-yl)-7-fluoro-1,3-dioxoisoindolin-4-yl)piperazin-1-yl)propanoyl)piperidin-4-yl)-3-methoxybenzamide] | ++ (++<0.6) | < 0.1 | > 10 | –
11 | COc1cc(C(=O)NC2CCCN(CCN3CCN(c4cccc5c4C(=O)N(C4CCC(=O)NC4=O)C5=O)CC3)C2)ccc1Nc1ncc2c(n1)N(C1CCCC1)CC(F)(F)C(=O)N2C (stereo not drawn) [Compound 143, 4-((9-cyclopentyl-7,7-difluoro-5-methyl-6-oxo-6,7,8,9-tetrahydro-5H-pyrimido[4,5-b][1,4]diazepin-2-yl)amino)-N-(1-(2-(4-(2-(2,6-dioxopiperidin-3-yl)-1,3-dioxoisoindolin-4-yl)piperazin-1-yl)ethyl)piperidin-3-yl)-3-methoxybenzamide] | ++ (++<0.6) | < 0.1 | – | > 10
12 | COc1cc(C(=O)NC2CCCN(CCCN3CCN(c4cccc5c4C(=O)N(C4CCC(=O)NC4=O)C5=O)CC3)C2)ccc1Nc1ncc2c(n1)N(C1CCCC1)CC(F)(F)C(=O)N2C (stereo not drawn) [Compound 144, 4-((9-cyclopentyl-7,7-difluoro-5-methyl-6-oxo-6,7,8,9-tetrahydro-5H-pyrimido[4,5-b][1,4]diazepin-2-yl)amino)-N-(1-(3-(4-(2-(2,6-dioxopiperidin-3-yl)-1,3-dioxoisoindolin-4-yl)piperazin-1-yl)propyl)piperidin-3-yl)-3-methoxybenzamide] | ++ (++<0.6) | < 0.05 | – | 4.08
13 | COc1cc(C(=O)NN2CCC(CN3CCN(c4ccc5c(c4)C(=O)N(C4CCC(=O)NC4=O)C5=O)CC3)CC2)ccc1Nc1ncc2c(n1)N(C1CCCC1)CC(F)(F)C(=O)N2C (stereo not drawn) [Compound 148, 4-((9-cyclopentyl-7,7-difluoro-5-methyl-6-oxo-6,7,8,9-tetrahydro-5H-pyrimido[4,5-b][1,4]diazepin-2-yl)amino)-N-(4-((4-(2-(2,6-dioxopiperidin-3-yl)-1,3-dioxoisoindolin-5-yl)piperazin-1-yl)methyl)piperidin-1-yl)-3-methoxybenzamide] | ++ (++<0.6) | < 0.05 | 13.2 | –
